{"source": "patent US6737383B1", "about": "“Herbicidal oxadiazolidines” (priority 1999, dated 2004)", "key": {"sugar beet": {"test_system": "sugar beet", "test": "Test B pre/postemergence sugar beet", "assay_type": "in vivo, Beta vulgaris", "summary_of_the_method": "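Herbicidal effect was estimated by eye on a ten-point control scale after plants spent twelve to sixteen days in a greenhouse following soil or foliar treatment. Foliar sprays targeted plants at one to four leaves; all doses were formulated in a non-phytotoxic solvent with surfactant.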"}, "rice": {"test_system": "rice", "test": "Test B flood test rice", "assay_type": "in vivo, Oryza sativa", "summary_of_the_method": "(§1)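 Read-out is a visual response score from 0 (no effect) to 10 (complete control), assigned by comparison with untreated controls. Treatment was applied at the 2-leaf stage, and plants stayed in the greenhouse for twelve to sixteen days before scoring.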"}, "smallflower flatsedge": {"test_system": "smallflower flatsedge", "test": "Test B flood test smallflower flatsedge", "assay_type": "in vivo, Cyperus difformis", "summary_of_the_method": "as §1"}, "duck salad": {"test_system": "duck salad", "test": "Test B flood test duck salad", "assay_type": "in vivo, Heteranthera limosa", "summary_of_the_method": "as §1"}, "bamyardgrass": {"test_system": "bamyardgrass", "test": "Test B flood test barnyardgrass", "assay_type": "in vivo, Echinochloa crus-galli", "summary_of_the_method": "as §1"}, "winter wheat [1]": {"test_system": "winter wheat", "test": "Test E winter wheat", "assay_type": "in vivo, Triticum aestivum", "details": "Postemergence, 0 to 100 scale", "summary_of_the_method": "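Greenhouse test: for postemergence, foliar application at 1- to 4-leaf stage; compound in non-phytotoxic solvent with surfactant. Rating is visual, relative to untreated controls, about 21 to 28 days after treatment.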"}, "Green foxtail [2]": {"test_system": "Green foxtail", "test": "Test D green foxtail", "assay_type": "in vivo", "summary_of_the_method": "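Scoring used a 0–100 visual injury scale, with 0 meaning no effect and 100 complete control, assessed 14–21 days after application alongside untreated pots. Preemergence treatments went onto sandy loam surfaces of separately potted seeds within a day of sowing.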"}, "blackgrass": {"test_system": "blackgrass", "test": "Test E blackgrass", "assay_type": "in vivo, Alopecurus myosuroides", "details": "Preemergence"}, "green foxtail [3]": {"test_system": "green foxtail", "test": "Test E green foxtail", "assay_type": "in vivo, Setaria viridis", "details": "Preemergence"}, "Italian ryegrass": {"test_system": "Italian ryegrass", "test": "Test E Italian ryegrass", "assay_type": "in vivo, Lolium multiflorum", "details": "Preemergence"}, "winter wheat [4]": {"test_system": "winter wheat", "test": "Test E winter wheat", "assay_type": "in vivo, Triticum aestivum", "details": "Preemergence"}, "wild oat": {"test_system": "wild oat", "test": "Test E wild oat", "assay_type": "in vivo, Avena fatua", "details": "Preemergence"}, "winter barley": {"test_system": "winter barley", "test": "Test E winter barley", "assay_type": "in vivo, Hordeum vulgare", "details": "Preemergence"}, "[5]": {"details": "Postemergence (flood test species), Rate 125 g/ha, scale of 0 to 10 where 0 is no effect and 10 is complete control"}, "[6]": {"details": "Rate 62 g/ha, Postemergence section, flood test species, scale of 0 to 10 where 0 is no effect and 10 is complete control"}, "[7]": {"details": "Rate 250 g/ha, Postemergence (flood test), scale 0 to 10, 0 is no effect, 10 is complete control"}, "[8]": {"details": "Rate 500 g/ha, listed under Postemergence (flood test species), scale 0 to 10"}, "[9]": {"details": "Rate 64 g/ha, Preemergence; 0 to 100 scale, 0 no injury, 100 complete control"}, "[10]": {"details": "Rate 125 g/ha, Preemergence; 0 to 100 scale, 0 no injury, 100 complete control"}, "[11]": {"details": "Rate 31 g/ha, 0 to 100 scale, 0 no effect, 100 complete control"}, "[12]": {"details": "Rate 62 g/ha, 0 to 100 scale, 0 no effect, 100 complete control"}, "[13]": {"details": "Rate 125 g/ha, 0 to 100 scale (0 no effect, 100 complete control)"}}}
{"smiles": "C=CCn1c(=O)on(C(=O)N(c2ccc(F)cc2F)C(C)C)c1=O", "note": "[Compound 151]", "values": [{"measurement": "Sugarbeets plant response rating", "setting": "sugar beet; Postemergence, Rate 125 g/ha, scale of 0 to 10 where 0 is no effect and 10 is complete control", "value": 3}, {"measurement": "Sugarbeets plant response rating", "setting": "sugar beet; Preemergence, Rate 62 g/ha, scale 0 to 10 (0 no effect, 10 complete control)", "value": 1}, {"measurement": "Sugarbeets plant response rating (0 to 10 scale)", "setting": "sugar beet; Preemergence, Rate 125 g/ha, 0 is no effect, 10 is complete control", "value": 8}, {"measurement": "Sugarbeets plant response rating", "setting": "sugar beet; Preemergence, Rate 250 g/ha, scale 0 to 10, 0 is no effect, 10 is complete control", "value": 10}, {"measurement": "Sugarbeets plant response rating", "setting": "sugar beet; Preemergence, Rate 500 g/ha, scale 0 to 10 (0 no effect, 10 complete control)", "value": 10}, {"measurement": "Sugarbeets plant response rating", "setting": "sugar beet; Rate 62 g/ha, Postemergence, scale of 0 to 10 where 0 is no effect and 10 is complete control", "value": 2}, {"measurement": "Plant response rating, Sugarbeets", "setting": "sugar beet; Rate 250 g/ha, Postemergence, scale 0 to 10, 0 is no effect, 10 is complete control", "value": 3}, {"measurement": "Sugarbeets plant response rating", "setting": "sugar beet; Rate 500 g/ha, Postemergence, scale 0 to 10", "value": 3}, {"measurement": "Rice plant response rating", "setting": "rice; [5]", "value": 0}, {"measurement": "Rice plant response rating", "setting": "rice; [6]", "value": 0}, {"measurement": "Plant response rating, Rice", "setting": "rice; [7]", "value": 0}, {"measurement": "Rice plant response rating", "setting": "rice; [8]", "value": 0}, {"measurement": "S. Flatsedge plant response rating", "setting": "smallflower flatsedge; [5]", "value": 0}, {"measurement": "S. Flatsedge plant response rating", "setting": "smallflower flatsedge; [6]", "value": 0}, {"measurement": "Plant response rating, S. Flatsedge", "setting": "smallflower flatsedge; [7]", "value": 0}, {"measurement": "S. Flatsedge plant response rating", "setting": "smallflower flatsedge; [8]", "value": 8}, {"measurement": "Ducksalad plant response rating", "setting": "duck salad; [5]", "value": 0}, {"measurement": "Ducksalad plant response rating", "setting": "duck salad; [6]", "value": 0}, {"measurement": "Plant response rating, Ducksalad", "setting": "duck salad; [7]", "value": 0}, {"measurement": "Ducksalad plant response rating", "setting": "duck salad; [8]", "value": 2}, {"measurement": "Barnyardgrass plant response rating", "setting": "bamyardgrass; [5]", "value": 0}, {"measurement": "Barnyardgrass plant response rating", "setting": "bamyardgrass; [6]", "value": 0}, {"measurement": "Plant response rating, Barnyardgrass", "setting": "bamyardgrass; [7]", "value": 0}, {"measurement": "Barnyardgrass plant response rating", "setting": "bamyardgrass; Rate 500 g/ha, listed under Postemergence (flood test species), scale 0 to 10, 0 no effect, 10 complete control", "value": 8}, {"measurement": "Plant response rating, Wheat (winter)", "setting": "winter wheat [1]; Rate 31 g/ha, 0 no effect, 100 complete control", "value": 10}, {"measurement": "Plant response rating, Wheat (winter)", "setting": "winter wheat [1]; Rate 62 g/ha", "value": 10}, {"measurement": "Plant response rating, Wheat (winter)", "setting": "winter wheat [1]; Rate 125 g/ha", "value": 70}, {"measurement": "Plant response rating, Green foxtail", "setting": "Green foxtail [2]; Preemergence; Rate 16 g/ha; 0 to 100 scale, 0 no injury, 100 complete control", "value": 100}, {"measurement": "Plant response rating, Green foxtail", "setting": "Green foxtail [2]; Preemergence; Rate 32 g/ha; 0 to 100 scale, 0 no injury, 100 complete control", "value": 100}, {"measurement": "Plant response rating, Green foxtail", "setting": "Green foxtail [2]; Rate 16 g/ha; Preemergence; 0 to 100 scale, 0 no injury, 100 complete control", "value": 100}, {"measurement": "Plant response rating, Green foxtail", "setting": "Green foxtail [2]; Rate 32 g/ha; Preemergence; 0 to 100 scale, 0 no injury, 100 complete control", "value": 75}, {"measurement": "Green foxtail plant response rating", "setting": "Green foxtail [2]; [9]", "value": 100}, {"measurement": "Plant response rating, Green foxtail", "setting": "Green foxtail [2]; [9]", "value": 100}, {"measurement": "Green foxtail plant response rating", "setting": "Green foxtail [2]; [10]", "value": 100}, {"measurement": "Plant response rating, Green foxtail", "setting": "Green foxtail [2]; [10]", "value": 100}, {"measurement": "Plant response rating, Green foxtail", "setting": "Green foxtail [2]; Rate 250 g/ha; Preemergence; 0 to 100 scale", "value": 100}, {"measurement": "Plant response rating, Green foxtail", "setting": "Green foxtail [2]; Rate 500 g/ha, Preemergence; 0 to 100 scale", "value": 100}, {"measurement": "Plant response rating, Blackgrass", "setting": "blackgrass; [11]", "value": 30}, {"measurement": "Plant response rating, Blackgrass", "setting": "blackgrass; [12]", "value": 45}, {"measurement": "Plant response rating, Blackgrass", "setting": "blackgrass; [13]", "value": 75}, {"measurement": "Plant response rating, Green foxtail", "setting": "green foxtail [3]; [11]", "value": 20}, {"measurement": "Plant response rating, Green foxtail", "setting": "green foxtail [3]; [12]", "value": 30}, {"measurement": "Plant response rating, Green foxtail", "setting": "green foxtail [3]; [13]", "value": 80}, {"measurement": "Plant response rating, I. Ryegrass", "setting": "Italian ryegrass; [11]", "value": 20}, {"measurement": "Plant response rating, I. Ryegrass", "setting": "Italian ryegrass; [12]", "value": 30}, {"measurement": "Plant response rating, I. Ryegrass", "setting": "Italian ryegrass; [13]", "value": 50}, {"measurement": "Plant response rating, Wheat (winter)", "setting": "winter wheat [4]; [11]", "value": 0}, {"measurement": "Plant response rating, Wheat (winter)", "setting": "winter wheat [4]; [12]", "value": 0}, {"measurement": "Plant response rating, Wheat (winter)", "setting": "winter wheat [4]; [13]", "value": 10}, {"measurement": "Plant response rating, Wild oat", "setting": "wild oat; [11]", "value": 10}, {"measurement": "Plant response rating, Wild oat", "setting": "wild oat; [12]", "value": 10}, {"measurement": "Plant response rating, Wild oat", "setting": "wild oat; [13]", "value": 20}, {"measurement": "Plant response rating, Barley (winter)", "setting": "winter barley; [11]", "value": 10}, {"measurement": "Plant response rating, Barley (winter)", "setting": "winter barley; [12]", "value": 10}, {"measurement": "Plant response rating, Barley (winter)", "setting": "winter barley; [13]", "value": 20}]}
